Results published in US20260078341A1, “TREATMENT OF CANCER USING CHIMERIC ANTIGEN RECEPTOR” (Novartis AG, priority 2014, published 2026).
Like-named read-outs stand apart in the source and are kept apart here.

What was measured:
[1] = test system: H1N1 A/California/07/2009; experiment: Hemagglutination inhibition titers after influenza vaccination, A/H1N1 vaccine strain; format: in vivo, human; conditions: for HI GMT ratio (CV %) A/H1N1: GMT at week 4 post vaccination/GMT at baseline
Method: The trial was observer-blind because the placebo in the RAD001 0.5 mg daily and 20 mg weekly cohorts differed slightly from the RAD001 tablets in those cohorts. […] The treatment duration for all cohorts was 6 weeks during which time subjects underwent safety evaluations in the clinic every 2 weeks. After subjects had been dosed for 4 weeks, RAD001 steady state levels were measured pre-dose and at one hour post dose. After completing the 6 week course of study drug, subjects were given a 2 week drug free break to reverse any possible RAD001-induced immunosuppression, and then were given a 2012 seasonal influenza vaccination (Agrippal®, Novartis Vaccines and Diagnostics, Siena, Italy) containing the strains H1N1 A/California/07/2009, H3N2 A/Victoria/210/2009, B/Brisbane/60/2008. Four weeks after influenza vaccination, subjects had serum collected for influenza titer measurements. Antibody titers to the 3 influenza vaccine strains as well as to 2 heterologous strains (A/H1N1 strain A/New Jersy/8/76 and A/H3N2 strain A/Victoria/361/11) were measured by standard hemagglutination inhibition assay (Kendal, A P et al. (1982) Concepts and procedures for laboratory-based influenza surveillance. Atlanta: Centers for Disease Control and Prevention B17-B35). Levels of IgG and IgM specific for the A/H1N1/California/07/2009 were measured in serum samples taken before and 4 weeks after influenza vaccination as described previously (Spensieri, F. et al. (2013) Proc. Natl. Acad. Sci. USA 110:14330-14335). Results were expressed as fluorescence intensity.
The primary analysis of geometric mean titer ratios was done using a normal Bayesian regression model with non-informative priors. This model was fitted to each antibody titer on the log scale. The primary outcome in each model was the Day 84 measurement. The Day 63 measurement was included in the outcome vector. The model fitted using SAS 9.2 proc mixed with the prior statement. The covariance structure of the matrix was considered as unstructured (option type=UN). A flat prior was used. For the secondary analysis of seroconversion rates, logistic regression was used.
The ability of RAD001 to improve immune function in elderly volunteers was evaluated by measuring the serologic response to the 2012 seasonal influenza vaccine. The hemagglutination inhibition (HI) geometric mean titers (GMT) to each of the 3 influenza vaccine strains at baseline and 4 weeks after influenza vaccination are provided in Table 6. The primary analysis variable was the HI GMT ratio (4 weeks post vaccination/baseline). […] This endpoint was chosen because a 1.2-fold increase in the influenza GMT ratio induced by the MF-59 vaccine adjuvant was associated with a decrease in influenza illness (Iob, A et al. (2005) Epidemiol Infect 133:687-693).
Rates of seroconversion 4 weeks after influenza vaccination were also evaluated. Seroconversion was defined as the change from a negative pre-vaccination titer (i.e., HI titer <1:10) to post-vaccination HI titer ≥1:40 or at least 4-fold increase from a non-negative (>1:10) pre-vaccination HI titer.

[2] = test system: A/H1N1 strain A/New Jersey/8/76; format: in vivo, human; conditions: 4 weeks after seasonal influenza vaccination
[3] = test system: A/H1N1/California/07/2009 influenza; experiment: Anti-A/H1N1/California/07/2009 influenza IgG and IgM levels in serum; format: in vivo, human; conditions: baseline to 4 weeks post vaccination, vs placebo
Method: FIGS. 44A and 44B. Graphic representations of IgG and IgM levels before and after influenza vaccination. Levels of anti-A/H1N1/California/07/2009 influenza IgG and IgM were measured in serum obtained from subjects before and 4 weeks post influenza vaccination.

## CO[C@H]1C[C@@H]2CC[C@@H](C)[C@@](O)(O2)C(=O)C(=O)N2CCCC[C@H]2C(=O)O[C@H]([C@H](C)C[C@@H]2CC[C@@H](OCCO)[C@H](OC)C2)CC(=O)[C@H](C)/C=C(\C)[C@@H](O)[C@@H](OC)C(=O)[C@H](C)C[C@H](C)/C=C/C=C/C=C/1C [RAD001, (1R,9S,12S,15R,16E,18R,19R,21R,23S,24E,26E,28E,30S,32S,35R)-1,18-dihydroxy-12-{(1R)-2-[(1S,3R,4R)-4-(2-hydroxyethoxy)-3-methoxycyclohexyl]-1-methylethyl}-19,30-dimethoxy-15,17,21,23,29,35-hexamethyl-11,36-dioxa-4-azatricyclo[30.3.1.0^4,9]hexatriaconta-16,24,26,28-tetraene-2,3,10,14,20-pentaone]
[1]; Baseline (2 weeks prior to influenza vaccination), RAD001 0.5 mg daily
  HI GMT (CV %) A/H1N1: 102.8 (186.9)
[1]; Baseline (2 weeks prior to influenza vaccination), RAD001 5 mg weekly
  HI GMT (CV %) A/H1N1: 84.2 (236.4)
[1]; Baseline (2 weeks prior to influenza vaccination), RAD001 20 mg weekly
  HI GMT (CV %) A/H1N1: 90.1 (188.4)
[1]; RAD001 0.5 mg daily
  HI GMT ratio (CV %) A/H1N1: 2.6 (302.5)
[1]; RAD001 5 mg weekly
  HI GMT ratio (CV %) A/H1N1: 2.5 (214.3)
[1]; RAD001 20 mg weekly
  HI GMT ratio (CV %) A/H1N1: 1.8 (201.5)
[1]; Intention to Treat Population, 0.5 mg
  Percent of subjects with seroconversion to influenza 4 weeks after vaccination, H1N1: 27%
[1]; Intention to Treat Population, 5 mg
  Percent of subjects with seroconversion to influenza 4 weeks after vaccination, H1N1: 27%
[1]; Intention to Treat Population, 20 mg
  Percent of subjects with seroconversion to influenza 4 weeks after vaccination, H1N1: 17%
[1]; Subjects with Baseline Titers <=40, 0.5 mg
  Percent of subjects with seroconversion to influenza 4 weeks after vaccination, H1N1: 42%
[1]; Subjects with Baseline Titers <=40, 5 mg
  Percent of subjects with seroconversion to influenza 4 weeks after vaccination, H1N1: 45%
[1]; Subjects with Baseline Titers <=40, 20 mg
  Percent of subjects with seroconversion to influenza 4 weeks after vaccination, H1N1: 36%
[1]; Week 4 after influenza vaccination, RAD001 0.5 mg daily
  HI GMT (CV %) A/H1N1: 190.2 (236.9)
[1]; Week 4 after influenza vaccination, RAD001 5 mg weekly
  HI GMT (CV %) A/H1N1: 198.73(195.6)
[1]; Week 4 after influenza vaccination, RAD001 20 mg weekly
  HI GMT (CV %) A/H1N1: 129.7 (175.9)
[2]; RAD001 5 mg weekly
  Percentage of subjects who seroconvert to heterologous strain A/H1N1 A/NewJersey/8/76: 16%
[2]; RAD001 20 mg weekly
  Percentage of subjects who seroconvert to heterologous strain A/H1N1 A/NewJersey/8/76: 8%
0.5 mg daily dosing cohort
  average RAD001 trough level: 0.9 ng/mL
20 mg weekly dosing cohort
  average RAD001 trough level: 0.7 ng/mL
Dosing regimens used in the immunization study
  trough level of the study regimens relative to oncology and transplant regimens, fold lower: 3-20 fold
[3]
  change from baseline in anti-H1N1 influenza IgG and IgM levels: No significant difference
